The half-life is the time needed for the level to fall by half in the phase considered. Read a low half-life as fast loss. For orientation: IC50 means the concentration needed to halve the response being measured. Broadly, the inhibition is how much of the control response was suppressed. Low readings indicate a response near the control, high ones a response far below the control.

Several values for one entry are separate records, joined by “and”; a condition that tells them apart may be missing. Equal values may be shown once. Read-outs that look alike come from different tables or passages of the source.

The subject of data set [1] is pinch skin graft from male DBA/2 donors transplanted to male BALB/c recipients. Description: pinch skin graft survival time. It counts as in vivo. To be noted: mean graft survival time, intraperitoneally. As to the method: A representative compound of this invention was also evaluated in an in vivo test procedure designed to determine the survival time of pinch skin graft from male DBA/2 donors transplanted to male BALB/c recipients. […] Briefly, a pinch skin graft from the donor is grafted on the dorsum of the recipient as a homograft, and an autograft is used as control in the same region. The recipients are treated with either varying concentrations of cyclosporin A as test control or the test compound, intraperitoneally. Untreated recipients serve as rejection control. The graft is monitored daily and observations are recorded until the graft becomes dry and forms a blackened scab. This is considered as the rejection day. The mean graft survival time (number of days ± S.D.) of the drug treatment group is compared with the control group.

Data set [2] in a line: half life (stability) in 0.1 M phosphate buffer. The note with it: for half-life: 0.1 m phosphate buffer, pH 7.4. It counts as physicochemical. From the text:
The 27-hydroxyrapamycin derivatives of formulas II - X are also expected to resist ring degredative reactions better than rapamycin and 31- and/or 42- substituted rapamycin derivatives of rapamycin.

Data set [3] concerns cells from the thymus of normal BALB/c mice. Kind of data set: comitogen-induced thymocyte proliferation procedure (LAF). The format is cell-based. The note with it: for IC50: read-out: L A F (IC50). As to the method:
The comitogen-induced thymocyte proliferation procedure (LAF) was used as an in vitro measure of the immunosuppressive effects of representative compounds. Briefly, cells from the thymus of normal BALB/c mice are cultured for 72 hours with PHA and IL-1 and pulsed with tritiated thymidine during the last six hours. Cells are cultured with and without various concentrations of rapamycin, cyclosporin A, or test compound. Cells are harvested and incorporated radioactivity is determined. Inhibition of lymphoproliferation is assessed as percent change in counts per minute from non-drug treated controls. The results are expressed as an IC50.

As to `CO[C@H]1C[C@@H]2CC[C@@H](C)[C@@](O)(O2)C(=O)C(=O)N2CCCC[C@H]2C(=O)O[C@H]([C@H](C)C[C@@H]2CC[C@@H](O)[C@H](OC)C2)CC(=O)[C@H](C)/C=C(\C)[C@@H](O)[C@@H](OC)C(=O)[C@H](C)C[C@H](C)/C=C/C=C/C=C/1C` [Rapamycin], the “Skin Graft (days + SD)” value in data set [1] (dose of 4 mg/kg) came out at 12.0 ± 1.7 days. Besides, the half-life in data set [2] is 11.8 h. Also, in data set [3] (Mus musculus, Thymocyte, 72 h), the IC50 worked out at 4.8 nM.
In turn, `CO[C@H]1C[C@@H]2CC[C@@H](C)[C@@](O)(O2)C(=O)C(=O)N2CCCC[C@H]2C(=O)O[C@H]([C@H](C)C[C@@H]2CC[C@@H](O)[C@H](OC)C2)CC(OC(C)=O)[C@H](C)/C=C(\C)[C@@H](O)[C@@H](OC)C(=O)[C@H](C)C[C@H](C)/C=C/C=C/C=C/1C` (some centres unmarked) [Example 5, 27-Hydroxyrapamycin-27-ester with acetic acid] showed a half-life in data set [2] of 34 h. In data set [3] (Mus musculus, T-cell, at 0.1 µM), the inhibition at 0.1 µM came out at 69%. Moreover, the inhibition at 1 µM in data set [3] (Mus musculus, T-cell, at 1 µM) was found to be 94%. The concentration for half-maximal inhibition (IC50) in data set [3] (Mus musculus, Thymocyte, thymocytes cultured 72 hours with PHA and IL-1, tritiated thymidine incorporation) was found to be 99 nM.
Consider 27-Hydroxyrapamycin, for which the “Skin Graft (days + SD)” value in data set [1] (dose of 4 mg/kg, 4 mg/kg) was 8.5 ± 1.2 days and 8.17 ± 0.75 days and 8.00 ± 0.63 days; in data set [1] (dose of 16 mg/kg, 16 mg/kg), 9.17 ± 0.98^+ days and 9.17 ± 0.75^+ days. Moreover, in data set [2] (0.1 M phosphate buffer (pH 7.4, 37° C)), the half life was 17.5 h. For the same compound, in data set [3] (thymocytes cultured 72 hours with PHA and IL-1, tritiated thymidine incorporation), the IC50 amounted to 3.7 nM.
